The target of experiment [1] is T1, Zea mays asparagine synthetase Zm AsnS2 (SEQ ID NO: 4, encoded by SEQ ID NO: 3) (Zea mays, UniProt B5U8J7).
T1 construct: 606 aa
T1 sequence (B5U8J7 1-606): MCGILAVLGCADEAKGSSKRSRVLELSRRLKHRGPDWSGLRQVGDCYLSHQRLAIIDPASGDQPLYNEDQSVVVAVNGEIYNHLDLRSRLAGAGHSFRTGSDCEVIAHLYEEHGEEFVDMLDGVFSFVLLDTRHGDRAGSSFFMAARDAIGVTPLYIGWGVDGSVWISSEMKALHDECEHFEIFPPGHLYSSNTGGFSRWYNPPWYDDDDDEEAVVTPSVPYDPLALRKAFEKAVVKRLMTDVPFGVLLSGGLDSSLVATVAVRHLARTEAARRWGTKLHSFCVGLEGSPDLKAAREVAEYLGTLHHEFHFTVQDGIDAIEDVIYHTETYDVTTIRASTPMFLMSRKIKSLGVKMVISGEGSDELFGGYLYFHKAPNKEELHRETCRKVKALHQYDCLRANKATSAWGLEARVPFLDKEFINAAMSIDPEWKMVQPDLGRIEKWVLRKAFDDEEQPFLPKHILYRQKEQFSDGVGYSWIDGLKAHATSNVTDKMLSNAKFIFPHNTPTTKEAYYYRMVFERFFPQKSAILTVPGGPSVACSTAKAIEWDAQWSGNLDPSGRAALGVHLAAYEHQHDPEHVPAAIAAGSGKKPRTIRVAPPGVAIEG
In words: Kinetics of recombinant his-tagged, refolded maize asparagine synthetase AsnS2 (substrate titration, asparagine by HPLC). It counts as biochemical. The following applies: Zm AsnS2; 100 mM Hepes, pH 8.0, 10 mM MgCl2; read-out: Km(NH4^+). On the procedure:
The effect of expression of asparagine synthetase genes on asparagine synthetase activity was measured in transgenic events of pMON79706 and pMON92870. Frozen, ground leaf tissue was aliquoted (200-400 mg) into wells from a precooled 96 deep-well plate. Protein was extracted in Buffer A (100 mM Hepes-OH, pH 8.0, 0.1 mM EDTA, 10 mM MgCl2, 2 mM aspartate, 0.5 mM DTT, 67 mM mercaptoethanol, 20% (v/v) glycerol, 0.1 mM ATP, 1% (v/v) P9599 (Sigma Company), 25 mM KCl). A small amount of sand was added to each well. Buffer A was then added to the leaf tissue in the wells at a ratio of 4:1 (buffer:tissue). The plates were then agitated in a paint shaker for 2 min. to mix the sample and then centrifuged at 5000×g for 10 minutes. The supernatant (100-200 μL) was desalted in a 96-well macro spin plate (SNS S025L, The Nest Group Inc., Southboro, Mass.) equilibrated in buffer A. The supernatant was then either assayed immediately or frozen in liquid nitrogen and maintained at −80° C. until used. […] The mixture was then filtered to remove precipitate and asparagine was measured by HPLC. […]

In experiment [2] the target is T2, Zea mays asparagine synthetase Zm AsnS4 (SEQ ID NO: 51, encoded by SEQ ID NO: 50) (Zea mays, UniProt B5U8J9).
T2 construct: 588 aa
T2 sequence (B5U8J9 1-588): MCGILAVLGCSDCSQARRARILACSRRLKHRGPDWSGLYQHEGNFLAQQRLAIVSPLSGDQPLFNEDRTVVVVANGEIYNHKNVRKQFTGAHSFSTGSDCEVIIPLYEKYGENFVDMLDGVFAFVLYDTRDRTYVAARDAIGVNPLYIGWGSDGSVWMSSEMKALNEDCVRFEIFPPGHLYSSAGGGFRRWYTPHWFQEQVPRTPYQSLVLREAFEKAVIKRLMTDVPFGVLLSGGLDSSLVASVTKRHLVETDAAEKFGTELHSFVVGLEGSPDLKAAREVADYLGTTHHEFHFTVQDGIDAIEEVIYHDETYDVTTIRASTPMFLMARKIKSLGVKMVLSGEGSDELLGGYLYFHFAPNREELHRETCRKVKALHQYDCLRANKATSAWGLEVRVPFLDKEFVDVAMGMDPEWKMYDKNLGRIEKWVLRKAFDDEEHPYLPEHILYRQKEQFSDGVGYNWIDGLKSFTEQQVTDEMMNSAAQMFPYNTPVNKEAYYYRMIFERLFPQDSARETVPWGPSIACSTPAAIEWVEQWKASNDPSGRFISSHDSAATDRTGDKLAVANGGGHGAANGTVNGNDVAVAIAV
The experiment is described as follows: Kinetics of recombinant his-tagged, refolded maize asparagine synthetase AsnS4 (substrate titration, asparagine by HPLC). The note with it: 100 mM Hepes, pH 8.0, 10 mM MgCl2, read-out: Km(NH4^+). Format: biochemical. On the procedure: The effect of expression of asparagine synthetase genes on asparagine synthetase activity was measured in transgenic events of pMON79706 and pMON92870. Frozen, ground leaf tissue was aliquoted (200-400 mg) into wells from a precooled 96 deep-well plate. Protein was extracted in Buffer A (100 mM Hepes-OH, pH 8.0, 0.1 mM EDTA, 10 mM MgCl2, 2 mM aspartate, 0.5 mM DTT, 67 mM mercaptoethanol, 20% (v/v) glycerol, 0.1 mM ATP, 1% (v/v) P9599 (Sigma Company), 25 mM KCl). A small amount of sand was added to each well. Buffer A was then added to the leaf tissue in the wells at a ratio of 4:1 (buffer:tissue). The plates were then agitated in a paint shaker for 2 min. to mix the sample and then centrifuged at 5000×g for 10 minutes. The supernatant (100-200 μL) was desalted in a 96-well macro spin plate (SNS S025L, The Nest Group Inc., Southboro, Mass.) equilibrated in buffer A. The supernatant was then either assayed immediately or frozen in liquid nitrogen and maintained at −80° C. until used. To assay asparagine synthetase activity, desalted protein extracts (10-50 μL) were added to wells containing 100 μL assay solution (100 mM Hepes, pH 8.0, 10 mM MgCl2, 2 mM aspartate, 5 mM DTT, 10 mM ATP, 1 mM amino(oxy)acetic acid (aspartate amino transferase inhibitor), 1 mM aspartic semialdehyde (asparaginase inhibitor). To start the reaction, glutamine (final concentration of 2 mM for standard assay) was added to the solution, which was then mixed. The assay mixture was then incubated for 1 to 2 hours. The reaction was then stopped by the addition of an equal volume of 20% (w/v) trichloroacetic acid. The mixture was then filtered to remove precipitate and asparagine was measured by HPLC. Sample size was increased from 0.5 μL to 2.5 μL for HPLC, excitation wavelength was reduced from 340 nm to 235 nm, and fluorimeter gain was increased from 10 to 13. […]

Turning to `N` [NH4^+], the Km in experiment [1] was 0.75 mM; in experiment [2], 9 mM.

The values are drawn from patent publication US8357833B2, “Corn plants and seed enhanced for asparagine and protein” (priority 2007, dated 2013).
